The values that follow come from ChEMBL document CHEMBL1201862, “PubChem BioAssay data set” (2004).

Some test systems named below: OVCAR-8; MOLT-4; ACHN; EKVX; HOP-62; SK-MEL-2; OVCAR-3; RXF 393; NCI/ADR-RES; MCF7; 786-0; PC-3; RPMI-8226; SF-539; HCC 2998; UACC-62; K562; OVCAR-4; HT-29.
Test in all cases: inhibition of tumour cell growth, NCI panel, 48 h

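Protocol summary: plate cells (96-well), add compound at 5 concentrations, incubate 48 h, interpolate endpoints linearly. The concentration for 50% growth inhibition is given as GI50.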 Active and inactive are the calls of the source. Cut-off read from the data, not from the text of the source: active = GI50 up to about 1.1 µM and inactive = higher.

Take `CC(C)(C)c1ccc(OCCOc2ccc(C(C)(C)C)cc2N)c(N)c1`: the GI50 in the assay with OVCAR-8 is 29.9 µM (inactive); in the assay with MOLT-4, > 100 µM (inactive); with ACHN it was 60.1 µM (inactive); in the assay with EKVX, > 100 µM (inactive); in the assay with HOP-62 it was > 100 µM (inactive); with SK-MEL-2, > 100 µM (inactive). Moreover, the GI50 was > 100 µM (inactive) in the assay on OVCAR-3; > 100 µM (inactive) with RXF 393; 48.8 µM (inactive) in the assay on NCI/ADR-RES; > 100 µM (inactive) in the assay on MCF7; 29.9 µM (inactive) in the assay with 786-0; > 100 µM (inactive) in the assay on PC-3. The GI50 with RPMI-8226 is 9.89 µM (inactive); in the assay on SF-539, > 100 µM (inactive); in the assay with HCC 2998, > 100 µM (inactive); in the assay on UACC-62, > 100 µM (inactive); in the assay on K562, > 100 µM (inactive); in the assay on OVCAR-4 it was 20 µM (inactive). Further, the GI50 in the assay with HT-29 is 10 µM (inactive).
In the case of `CCN(CC)C1Oc2cc3c(cc2C(c2cccc(OC)c2O)C1C)OCO3` (stereo not given), the GI50 in the assay on OVCAR-8 was 13.7 µM (inactive); in the assay on MOLT-4, 3.68 µM (inactive); with ACHN it was 6.25 µM (inactive); in the assay on EKVX, 10.6 µM (inactive); in the assay on HOP-62, 5.28 µM (inactive); in the assay on SK-MEL-2 it was 4.52 µM (inactive). The GI50 in the assay with OVCAR-3 is 1.94 µM (inactive); in the assay with RXF 393, 4.5 µM (inactive); with NCI/ADR-RES it was 4.62 µM (inactive); in the assay on MCF7 it was 9.55 µM (inactive); in the assay with 786-0, 9.79 µM (inactive); in the assay with PC-3, 3.63 µM (inactive). Moreover, the GI50 with RPMI-8226 is 3.24 µM (inactive); with SF-539 it was 2.54 µM (inactive); in the assay on HCC 2998 it was 12.4 µM (inactive); with UACC-62, 5.24 µM (inactive); in the assay on K562, 3.75 µM (inactive); in the assay with OVCAR-4, 7.14 µM (inactive). For the same compound, in the assay with HT-29, the GI50 was 4.16 µM (inactive).
Consider `COc1c(C)c2c(c(=O)c3c(C)cccc3n2C)c2c1c(=O)c1c(C)cccc1n2C`, for which the GI50 was 9.66 µM (inactive) in the assay with OVCAR-8; > 10 µM (inactive) with MOLT-4; > 10 µM (inactive) in the assay with ACHN; > 10 µM (inactive) in the assay on EKVX; > 10 µM (inactive) with HOP-62; > 10 µM (inactive) with SK-MEL-2. In addition, the GI50 with OVCAR-3 was > 10 µM (inactive); with RXF 393, > 10 µM (inactive); in the assay on NCI/ADR-RES it was 9.18 µM (inactive); with MCF7 it was > 10 µM (inactive); in the assay on 786-0, > 10 µM (inactive); in the assay with PC-3, > 10 µM (inactive). The GI50 in the assay with RPMI-8226 was 9.27 µM (inactive); with SF-539, > 10 µM (inactive); in the assay with HCC 2998 it was > 10 µM (inactive); in the assay on UACC-62, > 10 µM (inactive); with K562, > 10 µM (inactive); in the assay with OVCAR-4, > 10 µM (inactive). Besides, the GI50 in the assay on HT-29 is > 10 µM (inactive).
Turning to `C=C1CCCC2[C@](C)(CC3=C(Cl)C(=O)C=C(OC)C3=O)C(C)CC[C@]12C` (stereo not given in full), the GI50 with OVCAR-8 was 2.93 µM (inactive); in the assay with MOLT-4, 0.745 µM (active); in the assay on ACHN it was 4.66 µM (inactive); in the assay on EKVX, 2.02 µM (inactive); with HOP-62, 6.55 µM (inactive); in the assay with SK-MEL-2, 6.64 µM (inactive). The GI50 with OVCAR-3 is 5.93 µM (inactive); with RXF 393, 5.42 µM (inactive); with NCI/ADR-RES it was 3.99 µM (inactive); with MCF7 it was 1.49 µM (inactive); in the assay with 786-0, 1.85 µM (inactive); in the assay with PC-3, 1.58 µM (inactive). Also, the GI50 was 1.63 µM (inactive) in the assay on RPMI-8226; 2.33 µM (inactive) with SF-539; 9.12 µM (inactive) with HCC 2998; 6.4 µM (inactive) in the assay on UACC-62; 1.67 µM (inactive) in the assay with K562; 7.52 µM (inactive) in the assay with OVCAR-4. In addition, the GI50 in the assay on HT-29 was 2.51 µM (inactive).
Turning to `O=C1c2ccccc2-c2c1c(-c1cccc(Br)c1)nc1ccc3ccccc3c21`, the GI50 with OVCAR-8, in the assay with MOLT-4, in the assay with ACHN, with EKVX, in the assay with HOP-62 and in the assay with SK-MEL-2 was > 100 µM (inactive) throughout. The GI50 with OVCAR-3, in the assay with RXF 393, with NCI/ADR-RES, with MCF7, in the assay with 786-0 and in the assay on PC-3 was > 100 µM (inactive) throughout. Further, the GI50 in the assay on RPMI-8226, with SF-539, with HCC 2998, in the assay on UACC-62, in the assay with K562 and in the assay on OVCAR-4 was > 100 µM (inactive) each time. Moreover, the GI50 with HT-29 was > 100 µM (inactive).
As for `CCOC(=O)c1c(Nc2ccccc2)sc2cccnc12`, the GI50 with OVCAR-8 is 25.1 µM (inactive); with MOLT-4 it was 15.6 µM (inactive); with ACHN, 14.2 µM (inactive); in the assay with EKVX, 18.5 µM (inactive); in the assay on HOP-62, 35.5 µM (inactive); in the assay on SK-MEL-2, 17.7 µM (inactive). For the same compound, the GI50 with OVCAR-3 is 17.4 µM (inactive); in the assay with RXF 393 it was 25.7 µM (inactive); with NCI/ADR-RES, 21.9 µM (inactive); in the assay with MCF7, 7.76 µM (inactive); in the assay on 786-0 it was 11.6 µM (inactive); in the assay with PC-3 it was 11.1 µM (inactive). For the same compound, the GI50 with RPMI-8226 was 2.05 µM (inactive); in the assay with SF-539, 1.43 µM (inactive); with HCC 2998, 3.24 µM (inactive); in the assay on UACC-62, 11.9 µM (inactive); in the assay on K562 it was 8.36 µM (inactive); in the assay with OVCAR-4 it was 23.3 µM (inactive). In addition, in the assay on HT-29, the GI50 was 5.48 µM (inactive).
For `O=[N+]([O-])c1cc(CCl)ccc1CCl`, the GI50 was 2.4 µM (inactive) in the assay with OVCAR-8; 2.1 µM (inactive) with MOLT-4; 1.72 µM (inactive) in the assay on ACHN; 1.82 µM (inactive) in the assay on EKVX; 1.54 µM (inactive) in the assay with HOP-62; 2.72 µM (inactive) in the assay on SK-MEL-2. The GI50 is 1.87 µM (inactive) with OVCAR-3; 0.585 µM (active) in the assay with RXF 393; 2.7 µM (inactive) in the assay on NCI/ADR-RES; 1.63 µM (inactive) with MCF7; 1.67 µM (inactive) in the assay with 786-0; 1.64 µM (inactive) in the assay with PC-3. Moreover, the GI50 in the assay with RPMI-8226 was 1.48 µM (inactive); in the assay with SF-539, 2.56 µM (inactive); in the assay on HCC 2998, 2.48 µM (inactive); in the assay with UACC-62 it was 4.41 µM (inactive); in the assay on K562, 2.24 µM (inactive); in the assay on OVCAR-4 it was 1.76 µM (inactive). In addition, in the assay on HT-29, the GI50 was 1.71 µM (inactive).
Take `Cc1cc(S(=O)(=O)NC2=NNC(C)CN2)c(S)cc1Cl` (stereo not given): the GI50 was 32.1 µM (inactive) in the assay on OVCAR-8; 44.2 µM (inactive) in the assay on MOLT-4; 46.1 µM (inactive) with ACHN; 96.6 µM (inactive) in the assay with EKVX; 48.8 µM (inactive) in the assay on HOP-62; 21 µM (inactive) in the assay with SK-MEL-2. Besides, the GI50 in the assay with OVCAR-3 was 53.7 µM (inactive); in the assay with RXF 393, 50.9 µM (inactive); in the assay on NCI/ADR-RES, 33.4 µM (inactive); in the assay with MCF7, 35.8 µM (inactive); with 786-0, 35 µM (inactive); with PC-3, 63.7 µM (inactive). Also, the GI50 with RPMI-8226 was 20.1 µM (inactive); in the assay with SF-539, 43.9 µM (inactive); with HCC 2998, 37.3 µM (inactive); in the assay on UACC-62, 51.2 µM (inactive); with K562 it was 27 µM (inactive); in the assay on OVCAR-4 it was 44.1 µM (inactive). In addition, the GI50 in the assay with HT-29 was 62.2 µM (inactive).
As to `O=C1Nc2ccccc2/C1=N/NC(=S)Nc1ccc(Cl)cc1`, the GI50 is 18.2 µM (inactive) with OVCAR-8; 26.1 µM (inactive) with MOLT-4; 25.6 µM (inactive) in the assay with ACHN; 36.2 µM (inactive) with EKVX; 34.8 µM (inactive) with HOP-62; 24.5 µM (inactive) with SK-MEL-2. The GI50 with OVCAR-3 was 25.8 µM (inactive); in the assay on RXF 393, 39.4 µM (inactive); with NCI/ADR-RES, 12.1 µM (inactive); with MCF7 it was 48.6 µM (inactive); in the assay with 786-0 it was 22.3 µM (inactive); with PC-3, 33.7 µM (inactive). Also, the GI50 in the assay on RPMI-8226 was 49.7 µM (inactive); in the assay with SF-539, 29.2 µM (inactive); in the assay on HCC 2998, > 100 µM (inactive); with UACC-62, 50.7 µM (inactive); in the assay with K562 it was 29.9 µM (inactive); in the assay on OVCAR-4, 30.4 µM (inactive). The GI50 with HT-29 was 41 µM (inactive).
For the compound `O=c1c2ccccc2nc(-c2ccccc2)n1/N=C/c1ccccc1[N+](=O)[O-]`, the GI50 in the assay on OVCAR-8 was > 46.2 µM (inactive); in the assay on MOLT-4 it was > 100 µM (inactive); in the assay on ACHN it was 27.8 µM (inactive); in the assay with EKVX, > 51.1 µM (inactive); in the assay on HOP-62 it was 13.6 µM (inactive); with SK-MEL-2, 74.5 µM (inactive). Further, the GI50 in the assay on OVCAR-3 was > 100 µM (inactive); with RXF 393, 19.3 µM (inactive); in the assay on NCI/ADR-RES, 16.7 µM (inactive); with MCF7 it was > 78.2 µM (inactive); in the assay on 786-0, 21.9 µM (inactive); with PC-3, > 100 µM (inactive). In addition, the GI50 was > 100 µM (inactive) in the assay with RPMI-8226; 19.9 µM (inactive) in the assay with SF-539; > 100 µM (inactive) in the assay with HCC 2998; 79.6 µM (inactive) with UACC-62; > 100 µM (inactive) in the assay on K562; > 91.2 µM (inactive) with OVCAR-4. The GI50 with HT-29 was > 100 µM (inactive).
